According to patent US6903238B2, “Substituted indenones as estrogenic agents” (Wyeth, priority 2001, dated 2005):
Where two headings read alike, the source gives them in different places.

Key:
[1] = biological target: T1, human ERβ (Homo sapiens, UniProt Q92731); assay: Radioligand binding competition with [3H]-17β-estradiol, ERβ
T1 construct: M250-V595 of human ERα [Green, et al., Nature 320: 134-9 (1986)] and M214-Q530 of human ERβ; Flag (C); made in house; host or cells: E. coli BL21(DE3)

[2] = biological target: T2, human ERα (Homo sapiens, UniProt P03372); assay: Radioligand binding competition with [3H]-17β-estradiol, ERα; settings: read-out: ER-α IC50
T2 sequence (P03372 250-595): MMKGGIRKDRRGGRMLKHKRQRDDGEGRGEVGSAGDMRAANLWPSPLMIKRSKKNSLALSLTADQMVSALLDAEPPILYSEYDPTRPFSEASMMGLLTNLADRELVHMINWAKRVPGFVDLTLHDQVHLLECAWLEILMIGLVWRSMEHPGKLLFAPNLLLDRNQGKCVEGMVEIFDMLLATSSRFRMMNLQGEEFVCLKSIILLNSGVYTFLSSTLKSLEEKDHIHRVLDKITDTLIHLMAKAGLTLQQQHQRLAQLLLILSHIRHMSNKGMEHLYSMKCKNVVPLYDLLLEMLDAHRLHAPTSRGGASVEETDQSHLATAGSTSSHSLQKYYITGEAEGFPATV

[3] = tested on: metallothionein-II mRNA in Saos-2 cells; assay: Regulation of metallothionein II mRNA in Saos-2 cells; assay type: cell-based
[4] = competition with [3H]-17β-estradiol, human ERβ ligand binding domain, read-out: ER-β IC50
[5] = competition with [3H]-17β-estradiol, human ERα ligand binding domain

T1 sequence (Q92731 214-530): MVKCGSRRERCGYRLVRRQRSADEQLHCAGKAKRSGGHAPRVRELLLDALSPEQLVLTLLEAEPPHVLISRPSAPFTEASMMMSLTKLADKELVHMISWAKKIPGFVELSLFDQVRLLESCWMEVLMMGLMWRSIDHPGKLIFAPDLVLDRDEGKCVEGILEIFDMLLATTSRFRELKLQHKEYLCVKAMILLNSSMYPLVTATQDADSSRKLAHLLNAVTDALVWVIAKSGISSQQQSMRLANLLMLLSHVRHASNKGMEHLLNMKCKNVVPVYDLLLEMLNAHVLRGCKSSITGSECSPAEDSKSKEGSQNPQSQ

SMILES | melting point | IC50 [1, 4] | IC50 [2, 5] | IC50 [1] | Fold upregulation of metallothionein-II mRNA [3] | IC50 [2]
CSC1=C(c2ccc(O)cc2)C(=O)c2cc(O)cc(O)c21 [Example 18, 4,6-Dihydroxy-2-(4-hydroxyphenyl)-3-(methylthio)-1H-inden-1-one] | 208 to 210 °C |  |  |  |  | 
COc1cc(O)cc2c1C(Br)=C(c1ccc(O)cc1)C2=O [Example 16, 3-bromo-6-hydroxy-2-(4-hydroxyphenyl)-4-methoxy-1H-inden-1-one] | 210 °C (dec.) | 150 nM | 200 nM |  |  | 
NC1=C(c2ccc(O)cc2)C(=O)c2ccc(O)cc21 [Example 1, 3-Amino-5-hydroxy-2-(4-hydroxyphenyl)-1H-inden-1-one] | 260 to 265 °C |  | > 5000 nM | 1150 nM |  | 
CC1=C(c2ccc(O)cc2)C(=O)c2c(O)cc(O)cc21 [Example 17, 5,7-Dihydroxy-2-(4-hydroxyphenyl)-3-methyl-1H-inden-1-one] | 215 to 217 °C |  | 31 nM | 2 nM |  | 
O=C1C(c2ccc(O)cc2)=C(c2ccccc2)c2c(O)cc(O)cc21 [Example 20, 4,6-Dihydroxy-2-(4-hydroxyphenyl)-3-phenyl-1H-inden-1-one] | 223 to 225 °C | 44 nM | 47 nM |  |  | 
CCSC1=C(c2ccc(O)cc2)C(=O)c2cc(O)cc(O)c21 [Example 19, 3-(Ethylthio)-4,6-Dihydroxy-2-(4-hydroxyphenyl)-1H-inden-1-one] | 187 to 190 °C |  | 3 nM | 2 nM |  | 
O=C1C(c2ccc(O)cc2)=C(Br)c2cc(O)ccc21 [Example 4, 3-Bromo-5-hydroxy-2-(4-hydroxyphenyl)-1H-inden-1-one] | 245 °C (dec.) |  | 5 nM | 2 nM | 10.4 | 
O=C1C(c2ccc(O)cc2)=C(Br)c2ccc(O)cc21 [Example 3, 3-Bromo-6-hydroxy-2-(4-hydroxyphenyl)-1H-inden-1-one] | 240 °C (dec.) |  | 290 nM |  | 10.8 | 
O=C1C(c2ccc(O)cc2)=C(c2ccccc2)c2ccc(O)cc21 [Example 10, 6-hydroxy-2-(4-hydroxyphenyl)-3-phenyl-1H-inden-1-one] | 100 to 110 °C |  | 10 nM | 8 nM |  | 
CSC1=C(c2ccc(O)cc2)C(=O)c2cc(O)ccc21 [Example 8, 6-hydroxy-2-(4-hydroxyphenyl)-3-(methylthio)-1H-inden-1-one] | 90 to 92 °C | 3 nM | 12 nM |  |  | 
O=C1c2ccc(O)cc2C(=O)C1c1ccc(O)cc1 (stereo not drawn) [Example 2, 5-Hydroxy-2-(4-hydroxyphenyl)-1H-indene-1,3(2H)-dione] | 227 to 228 °C | 2630 nM |  |  |  | 
O=C1C(c2ccc(O)cc2)=C(c2ccccc2)c2cc(O)ccc21 [Example 11, 5-hydroxy-2-(4-hydroxyphenyl)-3-phenyl-1H-inden-1-one] | 222 to 225 °C |  | 15 nM | 5 nM |  | 
O=C1c2cc(O)cc(O)c2C(=O)C1c1ccc(O)cc1 (stereo not drawn) [Example 14, 4,6-dihydroxy-2-(4-hydroxyphenyl)-1H-inden-1,3(2H)-dione] | 220 to 222 °C | 1380 nM |  |  |  | 
CC1=C(c2ccc(O)cc2)C(=O)c2cc(O)c(O)cc21 [Example 22, 5,6-Dihydroxy-2-(4-hydroxyphenyl)-3-methyl-1H-inden-1-one] | 226 to 229 °C | 131 nM | 76 nM |  |  | 
O=C1C(c2ccc(O)cc2)=C(c2ccccc2)c2cc(O)cc(O)c21 [Example 21, 5,7-Dihydroxy-2-(4-hydroxyphenyl)-3-phenyl-1H-inden-1-one] | 128 to 130 °C |  |  |  |  | 3 nM
O=C1C(c2ccc(O)cc2)=C(Br)c2c(O)cc(O)cc21 [Example 15, 3-bromo-4,6-dihydroxy-2-(4-hydroxyphenyl)-1H-inden-1-one] | 350 °C (dec.) | 267 nM | 714 nM |  | 5.6 | 
CCSC1=C(c2ccc(O)cc2)C(=O)c2cc(O)ccc21 [Example 6, 3-(Ethylthio)-6-hydroxy-2-(4-hydroxyphenyl)-1H-inden-1-one] | 78 to 81 °C | 8 nM | 10 nM |  |  | 
CCSC1=C(c2ccc(O)cc2)C(=O)c2ccc(O)cc21 [Example 7, 3-(Ethylthio)-5-hydroxy-2-(4-hydroxyphenyl)-1H-inden-1-one] | 118 to 120 °C | 150 nM | 400 nM |  |  | 
CC1=C(c2ccc(O)cc2)C(=O)c2cc(O)ccc21 [Example 12, 6-hydroxy-2-(4-hydroxyphenyl)-3-methyl-1H-inden-1-one] | 240 to 245 °C | 11 nM | 55 nM |  |  | 
CC1=C(c2ccc(O)cc2)C(=O)c2ccc(O)cc21 [Example 13, 5-hydroxy-2-(4-hydroxyphenyl)-3-methyl-1H-inden-1-one] | 251 °C | 2 nM | 6 nM |  |  | 
CCNC1=C(c2ccc(O)cc2)C(=O)c2cc(O)ccc21 [Example 5, 3-(Ethylamino)-6-hydroxy-2-(4-hydroxyphenyl)-1H-inden-1-one] | 250 °C (dec.) | 2700 nM | > 5000 nM |  |  | 
CSC1=C(c2ccc(O)cc2)C(=O)c2ccc(O)cc21 [Example 9, 5-hydroxy-2-(4-hydroxyphenyl)-3-(methylthio)-1H-inden-1-one] | 183 to 185 °C |  | 3 nM | 1 nM |  | 
